Reference: PubChem BioAssay AID1963853 (Molecular Pharmacology Branch, DTP, NCI, 2024)

Tested on: 266295-075-R-J1-PDC spheroid viability
Assay: Anticancer human tumor 266295-075-R-J1-PDC patient-derived head and neck squamous carcinoma cell line growth inhibition [POLQ]
Conditions: spheroids with HUVEC and MSC; for IC50: curve of first compound; for viability, T/C: stronger effect = lower value
Method in brief: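 Three-cell-type spheroids modelling solid tumor plus stroma served as the readout system; POL inhibitors were tested individually and in combination, concentration ranges set by clinical Cmax where known.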

[1] = second compound 0.0316 µM, first compound 0.0316 µM
[2] = second compound 0.0316 µM, first compound 0.1 µM
[3] = second compound 0.0316 µM, first compound 0.316 µM
[4] = second compound 0.0316 µM, first compound 1 µM
[5] = second compound 0.0316 µM, first compound 3.16 µM
[6] = second compound 0.0316 µM, first compound 10 µM
[7] = second compound 0.1 µM, first compound 0.0316 µM
[8] = second compound 0.1 µM, first compound 0.1 µM
[9] = second compound 0.1 µM, first compound 0.316 µM
[10] = second compound 0.1 µM, first compound 1 µM
[11] = second compound 0.1 µM, first compound 3.16 µM
[12] = second compound 0.1 µM, first compound 10 µM
[13] = second compound 0.316 µM, first compound 0.0316 µM
[14] = second compound 0.316 µM, first compound 0.1 µM
[15] = second compound 0.316 µM, first compound 0.316 µM
[16] = second compound 0.316 µM, first compound 1 µM
[17] = second compound 0.316 µM, first compound 3.16 µM
[18] = second compound 0.316 µM, first compound 10 µM
[19] = second compound 1 µM, first compound 0.0316 µM
[20] = second compound 1 µM, first compound 0.1 µM
[21] = second compound 1 µM, first compound 0.316 µM
[22] = second compound 1 µM, first compound 1 µM
[23] = second compound 1 µM, first compound 3.16 µM
[24] = second compound 1 µM, first compound 10 µM
[25] = second compound 3.16 µM, first compound 0.0316 µM
[26] = second compound 3.16 µM, first compound 0.1 µM
[27] = second compound 3.16 µM, first compound 0.316 µM
[28] = second compound 3.16 µM, first compound 1 µM
[29] = second compound 3.16 µM, first compound 3.16 µM
[30] = second compound 3.16 µM, first compound 10 µM
[31] = second compound 10 µM, first compound 0.0316 µM
[32] = second compound 10 µM, first compound 0.1 µM
[33] = second compound 10 µM, first compound 0.316 µM
[34] = second compound 10 µM, first compound 1 µM
[35] = second compound 10 µM, first compound 3.16 µM
[36] = second compound 10 µM, first compound 10 µM
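Also: spheroids exposed to compounds for seven days before readout.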

SMILES: CCc1cc2c(N3CCc4c(cc(Cn5ccnc5)cc4-c4cn(C)nc4C(F)(F)F)C3=O)ccnc2c(OC)n1 + Nc1ccc(C#CCN(C(=O)Cc2ncc(C(F)(F)F)cc2C(F)(F)F)c2ccc(F)cc2)nn1
- IC50 (second compound 0.0316 µM): > 10 µM
- IC50 (second compound 0.1 µM): > 10 µM
- IC50 (second compound 0.316 µM): > 10 µM
- IC50 (second compound 1 µM): > 10 µM
- IC50 (second compound 3.16 µM): > 10 µM
- IC50 (second compound 10 µM): > 10 µM
- viability, T/C [1]: 92.7%
- viability, T/C [2]: 102%
- viability, T/C [3]: 105%
- viability, T/C [4]: 141%
- viability, T/C [5]: 183%
- viability, T/C [6]: 159%
- viability, T/C [7]: 100%
- viability, T/C [8]: 110%
- viability, T/C [9]: 91.7%
- viability, T/C [10]: 135%
- viability, T/C [11]: 127%
- viability, T/C [12]: 132%
- viability, T/C [13]: 116%
- viability, T/C [14]: 120%
- viability, T/C [15]: 110%
- viability, T/C [16]: 138%
- viability, T/C [17]: 148%
- viability, T/C [18]: 127%
- viability, T/C [19]: 109%
- viability, T/C [20]: 117%
- viability, T/C [21]: 97.5%
- viability, T/C [22]: 114%
- viability, T/C [23]: 134%
- viability, T/C [24]: 115%
- viability, T/C [25]: 99.8%
- viability, T/C [26]: 103%
- viability, T/C [27]: 122%
- viability, T/C [28]: 102%
- viability, T/C [29]: 110%
- viability, T/C [30]: 130%
- viability, T/C [31]: 103%
- viability, T/C [32]: 97.7%
- viability, T/C [33]: 118%
- viability, T/C [34]: 115%
- viability, T/C [35]: 133%
- viability, T/C [36]: 121%

SMILES: O=C(Nc1ccc(O)c(NS(=O)(=O)c2ccc(F)cc2)c1)c1ccc(-c2ccccc2)cc1 + Nc1ccc(C#CCN(C(=O)Cc2ncc(C(F)(F)F)cc2C(F)(F)F)c2ccc(F)cc2)nn1
- IC50 (second compound 0.0316 µM): > 10 µM
- IC50 (second compound 0.1 µM): > 10 µM
- IC50 (second compound 0.316 µM): > 10 µM
- IC50 (second compound 1 µM): > 10 µM
- IC50 (second compound 3.16 µM): > 10 µM
- IC50 (second compound 10 µM): > 10 µM
- viability, T/C [1]: 118%
- viability, T/C [2]: 105%
- viability, T/C [3]: 96.8%
- viability, T/C [4]: 114%
- viability, T/C [5]: 135%
- viability, T/C [6]: 87.8%
- viability, T/C [7]: 98.3%
- viability, T/C [8]: 123%
- viability, T/C [9]: 86.3%
- viability, T/C [10]: 118%
- viability, T/C [11]: 131%
- viability, T/C [12]: 94.7%
- viability, T/C [13]: 103%
- viability, T/C [14]: 113%
- viability, T/C [15]: 123%
- viability, T/C [16]: 114%
- viability, T/C [17]: 130%
- viability, T/C [18]: 106%
- viability, T/C [19]: 101%
- viability, T/C [20]: 109%
- viability, T/C [21]: 83.5%
- viability, T/C [22]: 109%
- viability, T/C [23]: 131%
- viability, T/C [24]: 91.9%
- viability, T/C [25]: 94.4%
- viability, T/C [26]: 98%
- viability, T/C [27]: 91%
- viability, T/C [28]: 99.7%
- viability, T/C [29]: 111%
- viability, T/C [30]: 106%
- viability, T/C [31]: 87.9%
- viability, T/C [32]: 82.4%
- viability, T/C [33]: 102%
- viability, T/C [34]: 105%
- viability, T/C [35]: 94.3%
- viability, T/C [36]: 87.9%

SMILES: COc1cccc(OCCCN)c1-c1cc(Nc2cnc(C#N)cn2)n[nH]1 + Nc1ccc(C#CCN(C(=O)Cc2ncc(C(F)(F)F)cc2C(F)(F)F)c2ccc(F)cc2)nn1
- IC50 (second compound 0.0316 µM): > 1 µM
- IC50 (second compound 0.1 µM): > 1 µM
- IC50 (second compound 0.316 µM): > 1 µM
- IC50 (second compound 1 µM): > 1 µM
- IC50 (second compound 3.16 µM): > 1 µM
- IC50 (second compound 10 µM): > 1 µM
- viability, T/C (second compound 0.0316 µM, first compound 0.00316 µM): 89.6%
- viability, T/C (second compound 0.0316 µM, first compound 0.01 µM): 110%
- viability, T/C [1]: 81.2%
- viability, T/C [2]: 77.5%
- viability, T/C [3]: 64.5%
- viability, T/C [4]: 64.4%
- viability, T/C (second compound 0.1 µM, first compound 0.00316 µM): 91.6%
- viability, T/C (second compound 0.1 µM, first compound 0.01 µM): 106%
- viability, T/C [7]: 84.1%
- viability, T/C [8]: 69.3%
- viability, T/C [9]: 72%
- viability, T/C [10]: 73.5%
- viability, T/C (second compound 0.316 µM, first compound 0.00316 µM): 106%
- viability, T/C (second compound 0.316 µM, first compound 0.01 µM): 91.9%
- viability, T/C [13]: 73.8%
- viability, T/C [14]: 76.1%
- viability, T/C [15]: 60.4%
- viability, T/C [16]: 71.2%
- viability, T/C (second compound 1 µM, first compound 0.00316 µM): 99.2%
- viability, T/C (second compound 1 µM, first compound 0.01 µM): 95.9%
- viability, T/C [19]: 74.5%
- viability, T/C [20]: 66.5%
- viability, T/C [21]: 61.9%
- viability, T/C [22]: 60.8%
- viability, T/C (second compound 3.16 µM, first compound 0.00316 µM): 120%
- viability, T/C (second compound 3.16 µM, first compound 0.01 µM): 101%
- viability, T/C [25]: 73.2%
- viability, T/C [26]: 72.8%
- viability, T/C [27]: 70.2%
- viability, T/C [28]: 61%
- viability, T/C (second compound 10 µM, first compound 0.00316 µM): 94.6%
- viability, T/C (second compound 10 µM, first compound 0.01 µM): 95%
- viability, T/C [31]: 87.8%
- viability, T/C [32]: 67.3%
- viability, T/C [33]: 62.1%
- viability, T/C [34]: 68.9%
